Data taken from the supplement of paper PMC9663587.

Columns and labels:
[1] = compound: Cc1cc(Nc2ncc(Cl)c(Nc3ccccc3S(=O)(=O)C(C)C)n2)c(OC(C)C)cc1C1CCNCC1 [Ceritinib/LDK378]
[2] = compound: CS(=O)(=O)N1CCN(Cc2cc3nc(-c4cccc5[nH]ncc45)nc(N4CCOCC4)c3s2)CC1 [Pictilisib/GDC0941]
[3] = compound: CCc1cnn2c(NCc3ccc[n+]([O-])c3)cc(N3CCCC[C@H]3CCO)nc12
[4] = compound: T1, CN(C)C(=O)c1cc2cnc(Nc3ccc(N4CCNCC4)cn3)nc2n1C1CCCC1 [LEE011/Ribociclib]
[5] = compound: Cc1nn(C)c(COc2ccc(N3CCN(S(=O)(=O)N(C)C)CC3)cc2)c1-c1cccc2c(CCCOc3cccc4ccccc34)c(C(=O)O)n(CCN3CCOCC3)c12
[6] = compound: COc1cccc2c1C(=O)c1c(O)c3c(c(O)c1C2=O)C[C@@](O)(C(=O)CO)C[C@@H]3O[C@H]1C[C@H](N)[C@H](O)[C@H](C)O1 [Doxorubicin]
[7] = compound: CCc1cnn2c(NCc3ccc[n+]([O-])c3)cc(N3CCCC[C@H]3CCO)nc12; experiment: increase in dead-cell fraction, 72 h; higher = more death;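 further: breast cancer cell lines in 384-well plates, stained with Hoechst plus LIVE/DEAD far red dye and imaged, cells above an LDR intensity threshold counted dead, Hoechst-negative corpses included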
[8] = compound: T1, LEE011/Ribociclib; experiment: as above
[9] = compound: CCN1CCN(Cc2ccc(Nc3ncc(F)c(-c4cc(F)c5nc(C)n(C(C)C)c5c4)n3)nc2)CC1; experiment: as above
[10] = compound: C=CC(=O)Nc1ccc(C(=O)Nc2[nH]nc3c2CN(C(=O)N[C@H](CN(C)C)c2ccccc2)C3(C)C)cc1 [YKL-5-124]; experiment: as above
[11] = compound: CN(C)C/C=C/C(=O)Nc1ccc(C(=O)Nc2cccc(Nc3ncc(Cl)c(-c4c[nH]c5ccccc45)n3)c2)cc1 [THZ1]; experiment: as above
[12] = compound: CN(C)C/C=C/C(=O)Nc1ccc(C(=O)N2CCC[C@@H](Nc3ncc(Cl)c(-c4c[nH]c5ccccc45)n3)C2)cc1 [THZ531]; experiment: as above
[13] = compound: CN1CC[C@H](c2c(O)cc(O)c3c(=O)cc(-c4ccccc4Cl)oc23)[C@H](O)C1 [Flavopiridol]; experiment: as above
[14] = compound: CC(=O)c1c(C)c2cnc(Nc3ccc(N4CCN(CCOCCOCCOCCNC(=O)COc5cccc6c5C(=O)N(C5CCC(=O)NC5=O)C6=O)CC4)cn3)nc2n(C2CCCC2)c1=O [BSJ-03-123]; experiment: as above
[15] = compound: CC(=O)c1c(C)c2cnc(Nc3ccc(N4CCNCC4)cn3)nc2n(C2CCCC2)c1=O; experiment: as above
[16] = compound: CCOc1cc2ncc(C#N)c(Nc3ccc(OCc4ccccn4)c(Cl)c3)c2cc1NC(=O)/C=C/CN(C)C [Neratinib/HKI272]; experiment: as above
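Wherever GR50, 72 h is given: breast cancer and non-malignant breast epithelial cell lines, Deep Dye Drop or Dye Drop imaging, nine half-log doses, GR normalized to time-zero plates and DMSO-only controls.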

## HCC1937
[1]
  GR50, 72 h: 3.53 µM
[2]
  GR50, 72 h: 2.42 µM
[3]
  GR50, 72 h: 0.0218 µM
[4]
  GR50, 72 h: > 10 µM
[5]
  GR50, 72 h: > 10 µM
[6]
  GR50, 72 h: 0.0128 µM
[7]; 0.0001 µM
  increase in dead-cell fraction: 0.0021
[7]; 0.0003162 µM
  increase in dead-cell fraction: -0.0036
[7]; 0.001 µM
  increase in dead-cell fraction: 0.0015
[7]; 0.003162 µM
  increase in dead-cell fraction: -0.0021
[7]; 0.01 µM
  increase in dead-cell fraction: 0.0113
[7]; 0.03162 µM
  increase in dead-cell fraction: 0.156
[7]; 0.1 µM
  increase in dead-cell fraction: 0.192
[7]; 0.3162 µM
  increase in dead-cell fraction: 0.181
[7]; 1 µM
  increase in dead-cell fraction: 0.19
[8]; 0.001 µM
  increase in dead-cell fraction: -0.0088
[8]; 0.003162 µM
  increase in dead-cell fraction: -0.0054
[8]; 0.01 µM
  increase in dead-cell fraction: -0.0115
[8]; 0.03162 µM
  increase in dead-cell fraction: -0.0122
[8]; 0.1 µM
  increase in dead-cell fraction: -0.0012
[8]; 0.3162 µM
  increase in dead-cell fraction: -0.0035
[8]; 1 µM
  increase in dead-cell fraction: -0.0021
[8]; 3.162 µM
  increase in dead-cell fraction: -0.0077
[8]; 10 µM
  increase in dead-cell fraction: 0.0003
[9]; 0.001 µM
  increase in dead-cell fraction: -0.0017
[9]; 0.003162 µM
  increase in dead-cell fraction: -0.0029
[9]; 0.01 µM
  increase in dead-cell fraction: -0.0019
[9]; 0.03162 µM
  increase in dead-cell fraction: -0.0004
[9]; 0.1 µM
  increase in dead-cell fraction: -0.0064
[9]; 0.3162 µM
  increase in dead-cell fraction: -0.0073
[9]; 1 µM
  increase in dead-cell fraction: -0.0012
[9]; 3.162 µM
  increase in dead-cell fraction: 0.0025
[9]; 10 µM
  increase in dead-cell fraction: 0.0559
[10]; 0.001 µM
  increase in dead-cell fraction: 0.004
[10]; 0.003162 µM
  increase in dead-cell fraction: 0.0243
[10]; 0.01 µM
  increase in dead-cell fraction: 0.0426
[10]; 0.03162 µM
  increase in dead-cell fraction: 0.0331
[10]; 0.1 µM
  increase in dead-cell fraction: 0.0403
[10]; 0.3162 µM
  increase in dead-cell fraction: 0.0391
[10]; 1 µM
  increase in dead-cell fraction: 0.0843
[10]; 3.162 µM
  increase in dead-cell fraction: 0.0582
[10]; 10 µM
  increase in dead-cell fraction: 0.0895
[11]; 0.0001 µM
  increase in dead-cell fraction: -0.0003
[11]; 0.0003162 µM
  increase in dead-cell fraction: -0.0027
[11]; 0.001 µM
  increase in dead-cell fraction: -0.0105
[11]; 0.003162 µM
  increase in dead-cell fraction: -0.0045
[11]; 0.01 µM
  increase in dead-cell fraction: -0.0053
[11]; 0.03162 µM
  increase in dead-cell fraction: -0.0002
[11]; 0.1 µM
  increase in dead-cell fraction: 0.06
[11]; 0.3162 µM
  increase in dead-cell fraction: 0.0438
[11]; 1 µM
  increase in dead-cell fraction: 0.104
[12]; 0.0001 µM
  increase in dead-cell fraction: 0.0017
[12]; 0.0003162 µM
  increase in dead-cell fraction: 0.0017
[12]; 0.001 µM
  increase in dead-cell fraction: 0.0043
[12]; 0.003162 µM
  increase in dead-cell fraction: -0.0008
[12]; 0.01 µM
  increase in dead-cell fraction: -0.0084
[12]; 0.03162 µM
  increase in dead-cell fraction: -0.0082
[12]; 0.1 µM
  increase in dead-cell fraction: 0.0051
[12]; 0.3162 µM
  increase in dead-cell fraction: 0.0511
[12]; 1 µM
  increase in dead-cell fraction: 0.0969
[13]; 0.0001 µM
  increase in dead-cell fraction: -0.0009
[13]; 0.0003162 µM
  increase in dead-cell fraction: -0.0013
[13]; 0.001 µM
  increase in dead-cell fraction: -0.0022
[13]; 0.003162 µM
  increase in dead-cell fraction: -0.0083
[13]; 0.01 µM
  increase in dead-cell fraction: 0.0073
[13]; 0.03162 µM
  increase in dead-cell fraction: 0
[13]; 0.1 µM
  increase in dead-cell fraction: 0.0006
[13]; 0.3162 µM
  increase in dead-cell fraction: 0.0316
[13]; 1 µM
  increase in dead-cell fraction: 0.0846
[14]; 0.001 µM
  increase in dead-cell fraction: 0.001
[14]; 0.003162 µM
  increase in dead-cell fraction: -0.0071
[14]; 0.01 µM
  increase in dead-cell fraction: 0.0079
[14]; 0.03162 µM
  increase in dead-cell fraction: 0
[14]; 0.1 µM
  increase in dead-cell fraction: 0.0032
[14]; 0.3162 µM
  increase in dead-cell fraction: -0.0022
[14]; 1 µM
  increase in dead-cell fraction: -0.0018
[14]; 3.162 µM
  increase in dead-cell fraction: -0.0018
[14]; 10 µM
  increase in dead-cell fraction: 0.0245
[15]; 0.0003162 µM
  increase in dead-cell fraction: -0.0018
[15]; 0.001 µM
  increase in dead-cell fraction: -0.0051
[15]; 0.003162 µM
  increase in dead-cell fraction: 0.0021
[15]; 0.01 µM
  increase in dead-cell fraction: 0.0002
[15]; 0.03162 µM
  increase in dead-cell fraction: -0.0009
[15]; 0.1 µM
  increase in dead-cell fraction: -0.0009
[15]; 0.3162 µM
  increase in dead-cell fraction: -0.0038
[15]; 1 µM
  increase in dead-cell fraction: -0.0027
[15]; 3.162 µM
  increase in dead-cell fraction: -0.0018
[16]; 0.0003162 µM
  increase in dead-cell fraction: 0.0017
[16]; 0.001 µM
  increase in dead-cell fraction: 0.0031
[16]; 0.003162 µM
  increase in dead-cell fraction: 0.0127
[16]; 0.01 µM
  increase in dead-cell fraction: 0.0186
[16]; 0.03162 µM
  increase in dead-cell fraction: 0.0314
[16]; 0.1 µM
  increase in dead-cell fraction: 0.0326
[16]; 0.3162 µM
  increase in dead-cell fraction: 0.0327
[16]; 1 µM
  increase in dead-cell fraction: 0.0368
[16]; 3.162 µM
  increase in dead-cell fraction: 0.0974
